Key:
Bos taurus [1] = species: Bos taurus; test: Binding affinity to bovine trypsin assessed as ligand-target residence time at 1H-4/5 resonance by (1)H relaxation dispersion NMR spectroscopy
Bos taurus [2] = species: Bos taurus; test: Binding affinity to bovine trypsin assessed as ligand-target residence time at 1H-9 resonance by (1)H relaxation dispersion NMR spectroscopy
Fusobacterium nucleatum = test: Binding affinity to Fusobacterium nucleatum class I aptamer assessed as ligand-target residence time at 1H-8 resonance by (1)H relaxation dispersion NMR spectroscopy
[3] = system: Caldanaerobacter subterraneus subsp. tengcongensis; test: Binding affinity to Thermoanaerobacter tengcongensis class I aptamer assessed as ligand-target residence time at 1H-8 resonance by (1)H relaxation dispersion NMR spectroscopy

TIME (Bos taurus [1]) [h]	TIME (Bos taurus [2]) [h]	TIME (Fusobacterium nucleatum) [h]	TIME [3] [h]	Structure (SMILES)
5.28e-08	5.56e-08	–	–	Nc1ccc2cc3ccc(N)cc3nc2c1
–	–	1.75e-07	6.39e-08	NCc1c[nH]c2nc(N)[nH]c(=O)c12
